Test results: patent US11851406B2, “Positive allosteric modulators of the muscarinic acetylcholine receptor M1” (Vanderbilt University, priority 2018, dated 2023)

Columns and labels:
[1] = target: T1, human mAChR M1 (Homo sapiens, UniProt P11229); assay: mAChR M1 cell-based functional assay (calcium mobilization), PAM activity: increase in the EC20 acetylcholine response; conditions: CHO-K1 cells expressing hM1; calcium flux (Fluo-4); potentiation of EC20 acetylcholine response
T1 sequence (P11229 1-460): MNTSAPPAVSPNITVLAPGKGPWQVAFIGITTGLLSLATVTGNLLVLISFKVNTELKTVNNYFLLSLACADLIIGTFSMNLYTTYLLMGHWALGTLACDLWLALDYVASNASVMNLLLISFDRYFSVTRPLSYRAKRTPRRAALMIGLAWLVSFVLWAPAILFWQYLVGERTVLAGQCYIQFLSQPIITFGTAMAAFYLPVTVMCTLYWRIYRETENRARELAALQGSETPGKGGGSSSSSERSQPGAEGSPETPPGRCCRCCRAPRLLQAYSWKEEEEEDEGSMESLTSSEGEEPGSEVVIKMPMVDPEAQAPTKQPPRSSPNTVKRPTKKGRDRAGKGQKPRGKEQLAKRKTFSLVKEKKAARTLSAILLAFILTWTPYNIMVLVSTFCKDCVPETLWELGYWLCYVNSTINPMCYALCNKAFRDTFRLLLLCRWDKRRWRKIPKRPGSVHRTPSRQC
Text: (§1) Chinese hamster ovary (CHO-K1) cells stably expressing rat (r)M1 were purchased from the American Type Culture Collection and cultured according to their indicated protocol. CHO cells stably expressing human (h)M2, hM3, and hM5 were described previously (Levey, et al., 1991); hM1 and hM4 cDNAs were purchased from Missouri S&T cDNA Resource; rM4 cDNA was provided by T. I. Bonner (National Institutes of Health, Bethesda, Md.). rM2 and rM3 were cloned from a rat brain cDNA library and sequence verified. hM1, rM2, rM3, hM4, and rM4 cDNAs were used to stably transfect CHO-K1 cells purchased from the American Type Culture Collection using Lipofectamine2000. To make stable rM2, hM2, rM3, hM4, and rM4 cell lines for use in calcium mobilization assays, these cells also were stably transfected with a chimeric G-protein (Gqi5) (provided by B. R. Conklin, University of California, San Francisco) using Lipofectamine 2000. rM1, hM1, rM3, hM3, rM5, and hM5 cells were grown in Ham's F-12 medium containing 10% heat-inactivated fetal bovine serum (FBS), 20 mM HEPES, and 50 μg/mL G418 sulfate. rM2-Gqi5, hM2-Gqi5, and hM4-Gqi5 cells were grown in the same medium also containing 500 μg/mL Hygromycin B. Stable rM4-Gqi5 cells were grown in DMEM containing 10% heat-inactivated FBS, 20 mM HEPES, 400 μg/mL G418 sulfate, and 500 μg/mL Hygromycin B.
(§2) For high throughput measurement of agonist-evoked increases in intracellular calcium, CHO-K1 cells stably expressing muscarinic receptors were plated in growth medium lacking G418 and hygromycin at 15,000 cells/20 μL/well in Greiner 384-well black-walled, tissue culture (TC)-treated, clear-bottom plates (VWR). Cells were incubated overnight at 37° C. and 5% CO2. The next day, cells were washed using an ELX 405 (BioTek) with four washes (80 μL) of assay buffer then aspirated to 20 μL. Next, 20 μL of 16 μM Fluo-4/acetoxymethyl ester (Invitrogen, Carlsbad, Calif.) prepared as a 2.3 mM stock in DMSO and mixed in a 1:1 ratio with 10% (w/v) Pluronic F-127 and diluted in assay buffer was added to the wells and the cell plates were incubated for 50 min at 37° C. and 5% CO2. Dye was removed by washing with the ELX 405 (four 80 μL washes of assay buffer) then aspirated to 20 μL. Compound master plates were formatted in an 11 point CRC format (1:3 dilutions) in 100% DMSO with a starting concentration of 10 mM using the BRAVO liquid handler (Agilent). Test compound CRCs were then transferred to daughter plates (240 nL) using the Echo acoustic plate reformatter (Labcyte, Sunnyvale, Calif.) and then diluted into assay buffer (40 μL) to a 2× stock using a Thermo Fisher Combi (Thermo Fisher Scientific, Waltham, Mass.).
(§3) Calcium flux was measured using the Functional Drug Screening System (FDSS) 6000 (Hamamatsu Corporation, Tokyo, Japan) as an increase in the fluorescent static ratio. Compounds were applied to cells (20 μL, 2×) using the automated system of the FDSS 6000 at 4 s into the 300 s protocol and the data were collected at 1 Hz. At 144 s into the 300 s protocol, 10 μL of an EC20 concentration of the muscarinic receptor agonist acetylcholine was added (5×), followed by the addition of 12 μL an EC80 concentration of acetylcholine at the 230 s time point (5×). Agonist activity was analyzed as a concentration-dependent increase in calcium mobilization upon compound addition. Emax values for agonist activity are expressed relative to the maximum for acetylcholine. Positive allosteric modulator activity was analyzed as a concentration-dependent increase in the EC20 acetylcholine response. Antagonist activity was analyzed as a concentration-dependent decrease in the EC80 acetylcholine response. Concentration-response curves were generated using a four-parameter logistical equation in XLfit curve fitting software (IDBS, Bridgewater, N.J.) for Excel (Microsoft, Redmond, Wash.) or Prism (GraphPad Software, Inc., San Diego, Calif.).

[2] = target: T1, human mAChR M1; assay: mAChR M1 cell-based functional assay (calcium mobilization), agonist activity upon compound addition alone; conditions: CHO-K1 cells expressing hM1; for EC50: calcium mobilization upon compound addition, no acetylcholine; for Emax: compound alone, relative to the maximum for acetylcholine
Text: as §1, §2, §3

Cc1c(Cc2ccc(-c3ccn(C)n3)cc2)cc(C(=O)NC2CCOCC2)nc1-c1ccn(C)n1 [Compound 1, 5-methyl-6-(1-methyl-1H-pyrazol-3-yl)-4-(4-(1-methyl-1H-pyrazol-3-yl)benzyl)-N-(tetrahydro-2H-pyran-4-yl)picolinamide]
EC50 [1]: 8.72 µM | Emax [1]: 85% | EC50 [2]: > 10 µM | Emax [2]: < 5%

Cc1c(Cc2ccc(-c3ccn(C)n3)cc2)cc(C(=O)N[C@H]2CCOC[C@@H]2O)nc1-n1cccn1 [Compound 2, N-((3R,4S)-3-hydroxytetrahydro-2H-pyran-4-yl)-5-methyl-4-(4-(1-methyl-1H-pyrazol-3-yl)benzyl)-6-(1H-pyrazol-1-yl)picolinamide]
EC50 [1]: 0.317 µM | Emax [1]: 78% | EC50 [2]: 7.15 µM | Emax [2]: 25%

Cn1cc(-c2ccc(Cc3cc(C(=O)N[C@H]4CCCC[C@@H]4O)nc(-c4ccn(C)n4)c3)cn2)cn1 [Compound 3, N-((1S,2S)-2-hydroxycyclohexyl)-6-(1-methyl-1H-pyrazol-3-yl)-4-((6-(1-methyl-1H-pyrazol-4-yl)pyridin-3-yl)methyl)picolinamide]
EC50 [1]: 4 µM | Emax [1]: 90% | EC50 [2]: > 10 µM | Emax [2]: < 5%

Cn1cc(-c2ccc(Cc3cc(C(=O)NC4CCOCC4)nc(-c4ccn(C)n4)c3)cn2)cn1 [Compound 4, 6-(1-methyl-1H-pyrazol-3-yl)-4-((6-(1-methyl-1H-pyrazol-4-yl)pyridin-3-yl)methyl)-N-(tetrahydro-2H-pyran-4-yl)picolinamide]
Emax [1]: 53% | EC50 [2]: > 10 µM | Emax [2]: < 5%

Cn1cc(-c2ccc(Cc3cc(C(=O)NC4CC5(COC5)C4)nc(-c4ccn(C)n4)c3)cn2)cn1 [Compound 5, 6-(1-methyl-1H-pyrazol-3-yl)-4-((6-(1-methyl-1H-pyrazol-4-yl)pyridin-3-yl)methyl)-N-(2-oxaspiro[3.3]heptan-6-yl)picolinamide]
Emax [1]: 52% | EC50 [2]: > 10 µM | Emax [2]: < 5%

Cn1cc(-c2ccc(Cc3cc(C(=O)N[C@H]4CCC[C@@H]4O)nc(-c4ccn(C)n4)c3)cn2)cn1 [Compound 6, N-((1S,2S)-2-hydroxycyclopentyl)-6-(1-methyl-1H-pyrazol-3-yl)-4-((6-(1-methyl-1H-pyrazol-4-yl)pyridin-3-yl)methyl)picolinamide]
Emax [1]: 67% | EC50 [2]: > 10 µM | Emax [2]: < 5%

Cn1cc(-c2ccc(Cc3cc(C(=O)NC[C@@H]4CCCO4)nc(-c4ccn(C)n4)c3)cn2)cn1 [Compound 7, (S)-6-(1-methyl-1H-pyrazol-3-yl)-4-((6-(1-methyl-1H-pyrazol-4-yl)pyridin-3-yl)methyl)-N-((tetrahydrofuran-2-yl)methyl)picolinamide]
Emax [1]: 38% | EC50 [2]: > 10 µM | Emax [2]: < 5%

Cn1cc(-c2ccc(Cc3cc(C(=O)NC4CCOCC4(C)C)nc(-c4ccn(C)n4)c3)cn2)cn1 (stereo not shown) [Compound 8, N-(3,3-dimethyltetrahydro-2H-pyran-4-yl)-6-(1-methyl-1H-pyrazol-3-yl)-4-((6-(1-methyl-1H-pyrazol-4-yl)pyridin-3-yl)methyl)picolinamide]
EC50 [1]: 8.01 µM | Emax [1]: 75% | EC50 [2]: > 10 µM | Emax [2]: < 5%

Cc1c(Cc2ccc(-c3ccn(C)n3)cc2)cc(C(=O)N[C@H]2CCOC[C@@H]2O)nc1-c1ccn(C)n1 [Compound 9, N-((3R,4S)-3-hydroxytetrahydro-2H-pyran-4-yl)-5-methyl-6-(1-methyl-1H-pyrazol-3-yl)-4-(4-(1-methyl-1H-pyrazol-3-yl)benzyl)picolinamide]
EC50 [1]: 0.542 µM | Emax [1]: 86% | EC50 [2]: 9.81 µM | Emax [2]: 18%

Cc1c(Cc2ccc(-c3ccn(C)n3)cc2)cc(C(=O)N[C@H]2CCCC[C@@H]2O)nc1-c1ccn(C)n1 [Compound 10, N-((1S,2S)-2-hydroxycyclohexyl)-5-methyl-6-(1-methyl-1H-pyrazol-3-yl)-4-(4-(1-methyl-1H-pyrazol-3-yl)benzyl)picolinamide]
EC50 [1]: 0.91 µM | Emax [1]: 86% | EC50 [2]: ≥ 10 µM | Emax [2]: 13%

Cc1c(Cc2ccc(-c3ccn(C)n3)cc2)cc(C(=O)NC2CC3(COC3)C2)nc1-c1ccn(C)n1 [Compound 11, 5-methyl-6-(1-methyl-1H-pyrazol-3-yl)-4-(4-(1-methyl-1H-pyrazol-3-yl)benzyl)-N-(2-oxaspiro[3.3]heptan-6-yl)picolinamide]
EC50 [1]: 4.72 µM | Emax [1]: 88% | EC50 [2]: > 10 µM | Emax [2]: < 5%

Cc1c(Cc2ccc(-c3ccn(C)n3)cc2)cc(C(=O)N[C@H]2CCC[C@@H]2O)nc1-c1ccn(C)n1 [Compound 12, N-((1S,2S)-2-hydroxycyclopentyl)-5-methyl-6-(1-methyl-1H-pyrazol-3-yl)-4-(4-(1-methyl-1H-pyrazol-3-yl)benzyl)picolinamide]
EC50 [1]: 1.97 µM | Emax [1]: 86% | EC50 [2]: > 10 µM | Emax [2]: 6%

Cc1c(Cc2ccc(-c3ccn(C)n3)cc2)cc(C(=O)N[C@H]2CC[C@@H]2O)nc1-c1ccn(C)n1 [Compound 13, N-((1S,2S)-2-hydroxycyclobutyl)-5-methyl-6-(1-methyl-1H-pyrazol-3-yl)-4-(4-(1-methyl-1H-pyrazol-3-yl)benzyl)picolinamide]
EC50 [1]: 7.99 µM | Emax [1]: 80% | EC50 [2]: > 10 µM | Emax [2]: < 5%

Cc1c(Cc2ccc(-c3ccn(C)n3)cc2)cc(C(=O)NCC2CCOCC2)nc1-c1ccn(C)n1 [Compound 14, 5-methyl-6-(1-methyl-1H-pyrazol-3-yl)-4-(4-(1-methyl-1H-pyrazol-3-yl)benzyl)-N-((tetrahydro-2H-pyran-4-yl)methyl)picolinamide]
Emax [1]: 74% | EC50 [2]: > 10 µM | Emax [2]: < 5%

Cc1c(Cc2ccc(-c3ccn(C)n3)cc2)cc(C(=O)NC[C@@H]2CCCO2)nc1-c1ccn(C)n1 [Compound 15, (S)-5-methyl-6-(1-methyl-1H-pyrazol-3-yl)-4-(4-(1-methyl-1H-pyrazol-3-yl)benzyl)-N-((tetrahydrofuran-2-yl)methyl)picolinamide]
EC50 [1]: 4.61 µM | Emax [1]: 82% | EC50 [2]: > 10 µM | Emax [2]: < 5%

Cc1c(Cc2ccc(-c3ccn(C)n3)cc2)cc(C(=O)NC[C@H]2CCCO2)nc1-c1ccn(C)n1 [Compound 16, (R)-5-methyl-6-(1-methyl-1H-pyrazol-3-yl)-4-(4-(1-methyl-1H-pyrazol-3-yl)benzyl)-N-((tetrahydrofuran-2-yl)methyl)picolinamide]
Emax [1]: 62% | EC50 [2]: > 10 µM | Emax [2]: < 5%
